≈ marks a conversion by molar mass, not a printed value.
Experiments:
Type in all cases: functional
Streptococcus [1] = assay: Antimicrobial activity against beta hemolytic Streptococcus group C at 0.5 ug/ml by broth microdilution method
Corynebacterium jeikeium = assay: Antimicrobial activity against Corynebacterium jeikeium at 0.25 ug/ml by broth microdilution method
Enterococcus gallinarum [2] = assay: Antimicrobial activity against Enterococcus gallinarum at <= 0.06 ug/ml by broth microdilution method
[3] = test system: Streptococcus constellatus; assay: Antimicrobial activity against viridans group Streptococcus constellatus at 2 ug/ml by broth microdilution method
Rothia mucilaginosa [4] = assay: Antimicrobial activity against Rothia mucilaginosa at 2 ug/ml by broth microdilution method
Streptococcus anginosus [5] = assay: Antimicrobial activity against viridans group Streptococcus anginosus at 0.12 ug/ml by broth microdilution method
Bacillus cereus = assay: Antimicrobial activity against Bacillus cereus by broth microdilution method
Streptococcus [6] = assay: Antimicrobial activity against beta hemolytic Streptococci group G at <= 0.06 ug/ml by broth microdilution method
Streptococcus salivarius [7] = assay: Antimicrobial activity against viridans group Streptococcus salivarius at <= 0.06 ug/ml by broth microdilution method
Streptococcus anginosus [8] = assay: Antimicrobial activity against viridans group Streptococcus anginosus at 2 ug/ml by broth microdilution method
Streptococcus mutans [9] = assay: Antimicrobial activity against viridans group Streptococcus mutans at 0.5 ug/ml by broth microdilution method
Enterococcus durans [10] = assay: Antimicrobial activity against Enterococcus durans at 0.12 ug/ml by broth microdilution method
Rothia mucilaginosa [11] = assay: Antimicrobial activity against Rothia mucilaginosa at 0.12 ug/ml by broth microdilution method
Streptococcus mitis [12] = assay: Antimicrobial activity against viridans group Streptococcus mitis at 0.12 ug/ml by broth microdilution method
Streptococcus gordonii [13] = assay: Antimicrobial activity against viridans group Streptococcus gordonii at 0.25 ug/ml by broth microdilution method
[14] = test system: Streptococcus intermedius; assay: Antimicrobial activity against viridans group Streptococcus intermedius at 2 ug/ml by broth microdilution method
Streptococcus sanguinis [15] = assay: Antimicrobial activity against viridans group Streptococcus sanguinis at 2 ug/ml by broth microdilution method
[16] = test system: Enterococcus casseliflavus; assay: Antimicrobial activity against Enterococcus casseliflavus at 2 ug/ml by broth microdilution method
Streptococcus [17] = assay: Antimicrobial activity against beta hemolytic Streptococcus group C at <= 0.06 ug/ml by broth microdilution method
Rothia mucilaginosa [18] = assay: Antimicrobial activity against Rothia mucilaginosa by broth microdilution method
Corynebacterium striatum = assay: Antimicrobial activity against Corynebacterium striatum at 0.25 ug/ml by broth microdilution method
Streptococcus [19] = assay: Antimicrobial activity against beta hemolytic Streptococci group G at 0.25 ug/ml by broth microdilution method
[20] = test system: Streptococcus constellatus; assay: Antimicrobial activity against viridans group Streptococcus constellatus by broth microdilution method
[21] = test system: Streptococcus parasanguinis; assay: Antimicrobial activity against viridans group Streptococcus parasanguis by broth microdilution method
[22] = test system: Streptococcus constellatus; assay: Antimicrobial activity against viridans group Streptococcus constellatus at <= 0.06 ug/ml by broth microdilution method
Streptococcus oralis [23] = assay: Antimicrobial activity against viridans group Streptococcus oralis at by broth microdilution method
Streptococcus mutans [24] = assay: Antimicrobial activity against viridans group Streptococcus mutans by broth microdilution method
Enterococcus avium [25] = assay: Antimicrobial activity against Enterococcus avium by broth microdilution method
Streptococcus gordonii [26] = assay: Antimicrobial activity against viridans group Streptococcus gordonii by broth microdilution method
Streptococcus oralis [27] = assay: Antimicrobial activity against viridans group Streptococcus oralis with G2576T rRNA mutation at 4 ug/ml by broth microdilution method
Streptococcus sanguinis [28] = assay: Antimicrobial activity against viridans group Streptococcus sanguinis at <= 0.06 ug/ml by broth microdilution method
[29] = test system: Corynebacterium amycolatum; assay: Antimicrobial activity against Corynebacterium amycolatum at 0.25 ug/ml by broth microdilution method
Enterococcus durans [30] = assay: Antimicrobial activity against Enterococcus durans at 1 ug/ml by broth microdilution method
[31] = test system: Enterococcus casseliflavus; assay: Antimicrobial activity against Enterococcus casseliflavus at 4 ug/ml by broth microdilution method
[32] = test system: Streptococcus intermedius; assay: Antimicrobial activity against viridans group Streptococcus intermedius at 1 ug/ml by broth microdilution method
[33] = test system: Streptococcus constellatus; assay: Antimicrobial activity against viridans group Streptococcus constellatus at 0.25 ug/ml by broth microdilution method
[34] = test system: Streptococcus vestibularis; assay: Antimicrobial activity against viridans group Streptococcus vestibularis by broth microdilution method
Streptococcus salivarius [35] = assay: Antimicrobial activity against viridans group Streptococcus salivarius at 0.5 ug/ml by broth microdilution method
Streptococcus equinus = assay: Antimicrobial activity against viridans group Streptococcus bovis at 0.12 ug/ml by broth microdilution method
[36] = test system: Streptococcus constellatus; assay: Antimicrobial activity against viridans group Streptococcus constellatus at 0.12 ug/ml by broth microdilution method
Corynebacterium sp. [37] = assay: Antimicrobial activity against Corynebacterium spp. by broth microdilution method
Enterococcus hirae = assay: Antimicrobial activity against Enterococcus hirae at 0.25 ug/ml by broth microdilution method
Streptococcus mitis [38] = assay: Antimicrobial activity against viridans group Streptococcus mitis at <= 0.06 ug/ml by broth microdilution method
Streptococcus salivarius [39] = assay: Antimicrobial activity against viridans group Streptococcus salivarius at 1 ug/ml by broth microdilution method
[40] = test system: Streptococcus vestibularis; assay: Antimicrobial activity against viridans group Streptococcus vestibularis at 1 ug/ml by broth microdilution method
Enterococcus avium [41] = assay: Antimicrobial activity against Enterococcus avium at 4 ug/ml by broth microdilution method
Corynebacterium sp. [42] = assay: Antimicrobial activity against Corynebacterium spp. at <= 0.06 ug/ml by broth microdilution method
Streptococcus oralis [43] = assay: Antimicrobial activity against viridans group Streptococcus oralis at 1 ug/ml by broth microdilution method
Enterococcus avium [44] = assay: Antimicrobial activity against Enterococcus avium at 2 ug/ml by broth microdilution method
Micrococcus luteus = assay: Antimicrobial activity against Micrococcus luteus at <= 0.06 ug/ml by broth microdilution method
Corynebacterium sp. [45] = assay: Antimicrobial activity against Corynebacterium spp. at 2 ug/ml by broth microdilution method
Streptococcus salivarius [46] = assay: Antimicrobial activity against viridans group Streptococcus salivarius at 2 ug/ml by broth microdilution method
Enterococcus gallinarum [47] = assay: Antimicrobial activity against Enterococcus gallinarum at 0.12 ug/ml by broth microdilution method
Streptococcus mutans [48] = assay: Antimicrobial activity against viridans group Streptococcus mutans at 1 ug/ml by broth microdilution method
Bacillus sp. = assay: Antimicrobial activity against Bacillus spp. at 0.5 ug/ml by broth microdilution method; settings: Bacillus sp. (in: firmicutes)

## CC(=O)NC[C@H]1CN(c2ccc(N3CCOCC3)c(F)c2)C(=O)O1 [LINEZOLID]
Streptococcus [1]
  inhibition at 0.5 µg/mL: 16.6%
Corynebacterium jeikeium
  inhibition at 0.25 µg/mL: 67.8%
Enterococcus gallinarum [2]
  Inhibition: 0%
[3]
  inhibition at 2 µg/mL: 100%
Rothia mucilaginosa [4]
  inhibition at 2 µg/mL: 100%
Streptococcus anginosus [5]
  inhibition at 0.12 µg/mL: 2.9%
Bacillus cereus
  MIC50: 1 µg/mL (≈ 2.96 µM)
  MIC90: 1 µg/mL (≈ 2.96 µM)
Streptococcus [6]
  Inhibition: 0.5%
Streptococcus salivarius [7]
  Inhibition: 0%
Streptococcus anginosus [8]
  inhibition at 2 µg/mL: 100%
Streptococcus mutans [9]
  inhibition at 0.5 µg/mL: 36.8%
Enterococcus durans [10]
  inhibition at 0.12 µg/mL: 0%
Rothia mucilaginosa [11]
  inhibition at 0.12 µg/mL: 5.6%
Streptococcus mitis [12]
  inhibition at 0.12 µg/mL: 1.2%
Streptococcus gordonii [13]
  inhibition at 0.25 µg/mL: 0%
[14]
  inhibition at 2 µg/mL: 100%
Streptococcus sanguinis [15]
  inhibition at 2 µg/mL: 100%
[16]
  inhibition at 2 µg/mL: 96.9%
Streptococcus [17]
  Inhibition: 1.5%
Rothia mucilaginosa [18]
  MIC50: 0.5 µg/mL (≈ 1.48 µM)
  MIC90: 1 µg/mL (≈ 2.96 µM)
Corynebacterium striatum
  inhibition at 0.25 µg/mL: 88%
Streptococcus [19]
  inhibition at 0.25 µg/mL: 0.8%
[20]
  MIC50: 1 µg/mL (≈ 2.96 µM)
  MIC90: 1 µg/mL (≈ 2.96 µM)
[21]
  MIC50: 0.5 µg/mL (≈ 1.48 µM)
  MIC90: 1 µg/mL (≈ 2.96 µM)
[22]
  Inhibition: 1.1%
Streptococcus oralis [23]
  MIC50: 1 µg/mL (≈ 2.96 µM)
  MIC90: 1 µg/mL (≈ 2.96 µM)
Streptococcus mutans [24]
  MIC50: 1 µg/mL (≈ 2.96 µM)
  MIC90: 2 µg/mL (≈ 5.93 µM)
Enterococcus avium [25]
  MIC50: 1 µg/mL (≈ 2.96 µM)
  MIC90: 2 µg/mL (≈ 5.93 µM)
Streptococcus gordonii [26]
  MIC50: 1 µg/mL (≈ 2.96 µM)
  MIC90: 1 µg/mL (≈ 2.96 µM)
Streptococcus oralis [27]
  inhibition at 4 µg/mL: 99.3%
Streptococcus sanguinis [28]
  Inhibition: 0%
[29]
  inhibition at 0.25 µg/mL: 100%
Enterococcus durans [30]
  inhibition at 1 µg/mL: 32.7%
[31]
  inhibition at 4 µg/mL: 100%
[32]
  inhibition at 1 µg/mL: 87.9%
[33]
  inhibition at 0.25 µg/mL: 12.4%
[34]
  MIC50: 1 µg/mL (≈ 2.96 µM)
  MIC90: 1 µg/mL (≈ 2.96 µM)
Streptococcus salivarius [35]
  inhibition at 0.5 µg/mL: 46.2%
Streptococcus equinus
  inhibition at 0.12 µg/mL: 0%
[36]
  inhibition at 0.12 µg/mL: 3.4%
Corynebacterium sp. [37]
  MIC50: 0.25 µg/mL (≈ 0.741 µM)
  MIC90: 0.5 µg/mL (≈ 1.48 µM)
Enterococcus hirae
  inhibition at 0.25 µg/mL: 0%
Streptococcus mitis [38]
  Inhibition: 0.3%
Streptococcus salivarius [39]
  inhibition at 1 µg/mL: 98.9%
[40]
  inhibition at 1 µg/mL: 100%
Enterococcus avium [41]
  inhibition at 4 µg/mL: 100%
Corynebacterium sp. [42]
  Inhibition: 2.1%
Streptococcus oralis [43]
  inhibition at 1 µg/mL: 96.4%
Enterococcus avium [44]
  inhibition at 2 µg/mL: 99.1%
Micrococcus luteus
  Inhibition: 0%
Corynebacterium sp. [45]
  inhibition at 2 µg/mL: 100%
Streptococcus salivarius [46]
  inhibition at 2 µg/mL: 100%
Enterococcus gallinarum [47]
  inhibition at 0.12 µg/mL: 0%
Streptococcus mutans [48]
  inhibition at 1 µg/mL: 89.5%
Bacillus sp.
  inhibition at 0.5 µg/mL: 31.7%

Source: ChEMBL document CHEMBL1145534 (2007)
